Patent US20230295114A1, “AKT3 MODULATORS” (Georgiamune LLC, priority 2020, published 2023)
pEC50, pIC50: −log10 of the molar value.

Tests used:
Akt3 [1] = target: T1, Akt3 (Homo sapiens, UniProt Q9Y243); assay: Akt3 inhibition activity of selected compounds; format: cell-based
T1 construct: endogenous in cells

Akt3 [2] = target: T1, Akt3; assay: Akt3 activation activity of selected compounds; format: cell-based

T1 sequence (Q9Y243 whole entry): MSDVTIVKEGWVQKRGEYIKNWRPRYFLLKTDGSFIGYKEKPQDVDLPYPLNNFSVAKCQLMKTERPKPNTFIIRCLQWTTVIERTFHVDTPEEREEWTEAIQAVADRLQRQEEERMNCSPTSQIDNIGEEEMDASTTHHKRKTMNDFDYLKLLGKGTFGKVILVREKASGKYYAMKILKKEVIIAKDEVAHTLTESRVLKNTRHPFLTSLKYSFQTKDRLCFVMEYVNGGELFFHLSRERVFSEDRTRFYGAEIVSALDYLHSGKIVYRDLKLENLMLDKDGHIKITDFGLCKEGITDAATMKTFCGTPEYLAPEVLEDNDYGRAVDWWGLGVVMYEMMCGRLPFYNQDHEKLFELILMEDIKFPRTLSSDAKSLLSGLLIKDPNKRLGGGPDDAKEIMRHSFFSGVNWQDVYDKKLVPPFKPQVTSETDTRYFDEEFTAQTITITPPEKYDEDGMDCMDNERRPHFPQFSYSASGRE

Row | pIC50 (Akt3 [1]) | SMILES | pEC50 (Akt3 [2])
1 | > 6.00 | O=C(Nc1cccc(Nc2ccncc2)c1)c1ccc(Nc2ccnc3ccc(F)cc23)cc1 [Compound 2, 4-((6-fluoroquinolin-4-yl)amino)-N-(3-(pyridin-4-ylamino)phenyl)benzamide] | 
2 | > 5.70 | O=C(Nc1cccc(Nc2ccncc2)c1)c1ccc(Nc2ccnc3ccccc23)cc1 [Compound 5, N-(3-(pyridin-4-ylamino)phenyl)-4-(quinolin-4-ylamino)benzamide] | 
3 | > 6.00 | O=C(Nc1cccc(Nc2ccncc2)c1)c1ccc(Nc2ccncc2)cc1 [Compound 10, 4-(pyridin-4-ylamino)-N-(3-(pyridin-4-ylamino)phenyl)benzamide] | 
4 | > 5.30 | Cc1cnc2ccccc2c1Nc1ccc(C(=O)Nc2cccc(Oc3ccncc3)c2)cc1 [Compound 13, 4-((3-methylquinolin-4-yl)amino)-N-(3-(pyridin-4-yloxy)phenyl)benzamide] | 
5 | > 6.30 | Cc1cnc2ccccc2c1Nc1ccc(C(=O)Nc2cccc(Nc3ccncc3)c2)cc1 [Compound 14, 4-((3-methylquinolin-4-yl)amino)-N-(3-(pyridin-4-ylamino)phenyl)benzamide] | 
6 | > 5.70 | Cc1cc(Nc2ccc(C(=O)Nc3cccc(Oc4ccncc4)c3)cc2)c2ccccc2n1 [Compound 15, 4-((2-methylquinolin-4-yl)amino)-N-(3-(pyridin-4-yloxy)phenyl)benzamide] | 
7 | > 5.30 | Cc1ccc2c(Nc3ccc(C(=O)Nc4cccc(Oc5ccncc5)c4)cc3)ccnc2c1 [Compound 17, 4-((7-methylquinolin-4-yl)amino)-N-(3-(pyridin-4-yloxy)phenyl)benzamide] | 
8 | > 5.70 | Cc1cc(Nc2cccc(NC(=O)c3ccc(Nc4ccncc4)cc3)c2)ccn1 [Compound 22, N-(3-((2-methylpyridin-4-yl)amino)phenyl)-4-(pyridin-4-ylamino)benzamide] | 
9 | > 5.70 | Cc1cc(Nc2ccc(C(=O)Nc3cccc(Nc4ccnc(C)c4)c3)cc2)ccn1 [Compound 23, 4-((2-methylpyridin-4-yl)amino)-N-(3-((2-methylpyridin-4-yl)amino)phenyl)benzamide] | 
10 | > 5.30 | O=C(Nc1cc(Nc2ccncc2)ccn1)c1ccc(Nc2ccncc2)cc1 [Compound 24, 4-(pyridin-4-ylamino)-N-(4-(pyridin-4-ylamino)pyridin-2-yl)benzamide] | 
11 | > 5.30 | N#Cc1cc(Nc2cccc(NC(=O)c3ccc(Nc4ccncc4)cc3)c2)ccn1 [Compound 30, N-(3-(2-cyanopyridin-4-ylamino)phenyl)-4-(pyridin-4-ylamino)benzamide] | 
12 | > 6.00 | O=C(Nc1cccc(Nc2ccnc(F)c2)c1)c1ccc(Nc2ccncc2)cc1 [Compound 31, N-(3-(2-fluoropyridin-4-ylamino)phenyl)-4-(pyridin-4-ylamino)benzamide] | 
13 |  | Cc1cc(Nc2ccc3[nH]c(-c4ccc(Nc5ccnc6ccc(N(C)C)cc56)cc4)nc3c2)ccn1 [Compound 37, N^6,N^6-dimethyl-N^4-(4-(5-((2-methylpyridin-4-yl)amino)-1H-benzo [d]imidazol-2-yl)phenyl)quinoline-4,6-diamine] | > 5.30
14 |  | Cc1cc(Nc2ccc3[nH]c(-c4ccc(Nc5ccnc6ccc(N7CCOCC7)cc56)cn4)nc3c2)ccn1 [Compound 69, N-(6-(5-((2-methylpyridin-4-yl)amino)-1H-benzo[d]imidazol-2-yl)pyridin-3-yl)-6-morpholinoquinolin-4-amine] | > 7.70
15 |  | Cc1cc(Nc2ccc3[nH]c(-c4ccc(Nc5cc(C)nc6ccc(N7CCOCC7)cc56)cn4)nc3n2)ccn1 [Compound 70, 2-methyl-N-(6-(5-(2-methylpyridin-4-ylamino)-1H-imidazo [4,5-b]pyridin-2-yl)pyridin-3-yl)-6-morpholinoquinolin-4-amine] | > 5.70
16 |  | Cc1cc(Nc2ccc3[nH]c(-c4ccc(Nc5ccnc6ccc(N7CCOCC7)cc56)nc4)nc3c2)ccn1 [Compound 71, N-(5-(5-((2-methylpyridin-4-yl)amino)-1H-benzo[d]imidazol-2-yl)pyridin-2-yl)-6-morpholinoquinolin-4-amine] | > 7.30
17 |  | Cc1cc(Nc2ccc3[nH]c(-c4ccc(Nc5cc(C)nc6ccc(N7CCOCC7)cc56)nc4)nc3c2)ccn1 [Compound 73, 2-methyl-N-(5-(5-(2-methylpyridin-4-ylamino)-1H-benzo[d]imidazol-2-yl)pyridin-2-yl)-6-morpholinoquinolin-4-amine] | > 7.30
18 |  | Cc1cc(Nc2ccc3[nH]c(-c4ccc(Nc5cc(C)nc6ccc(N7CCOCC7)cc56)cn4)nc3c2)ccn1 [Compound 74, 2-methyl-N-(6-(5-(2-methylpyridin-4-ylamino)-1H-benzo[d]imidazol-2-yl)pyridin-3-yl)-6-morpholinoquinolin-4-amine] | > 7.30
19 |  | Cc1cc(Nc2ccc3[nH]c(-c4ccc(Nc5ccnc6ccc(N7CC(C)OC(C)C7)cc56)cc4)nc3c2)ccn1 (stereo not drawn) [Compound 75, 6-(2,6-dimethylmorpholino)-N-(4-(5-((2-methylpyridin-4-yl)amino)-1H-benzo[d]imidazol-2-yl)phenyl)quinolin-4-amine] | > 7.70
20 |  | Cc1cc(Nc2ccc3[nH]c(-c4ccc(Nc5cc(C)nc6ccc(N7CC(C)OC(C)C7)cc56)cc4)nc3c2)ccn1 (stereo not drawn) [Compound 76, 6-(2,6-dimethylmorpholino)-2-methyl-N-(4-(5-(2-methylpyridin-4-ylamino)-1H-benzo[d]imidazol-2-yl)phenyl)quinolin-4-amine] | > 7.30
21 |  | Cc1cc(Nc2ccc3[nH]c(-c4ccc(Nc5cc(C)nc6ccc(N7CC(C)OC(C)C7)cc56)cn4)nc3c2)ccn1 (stereo not drawn) [Compound 77, 6-(2,6-dimethylmorpholino)-2-methyl-N-(6-(5-(2-methylpyridin-4-ylamino)-1H-benzo[d]imidazol-2-yl)pyridin-3-yl)quinolin-4-amine] | > 7.30
22 | > 5.30 | Cc1c(Nc2cccc(NC(=O)c3ccc(Nc4ccncc4)cc3)c2)ccnc1N [Compound 92, N-(3-(2-amino-3-methylpyridin-4-ylamino)phenyl)-4-(pyridin-4-ylamino)benzamide] | 
23 | > 5.70 | Nc1cc(Nc2cccc(NC(=O)c3ccc(Nc4ccncc4)cc3)c2)ccn1 [Compound 93, N-(3-(2-aminopyridin-4-ylamino)phenyl)-4-(pyridin-4-ylamino)benzamide] | 
24 | > 5.70 | Cc1cc(Nc2cccc(NC(=O)c3ccc(Nc4ccncc4)cc3)c2)cc(N)n1 [Compound 94, N-(3-(2-amino-6-methylpyridin-4-ylamino)phenyl)-4-(pyridin-4-ylamino)benzamide] | 
